Where “and” joins values, the source holds several entries; their conditions need not be identical. Equal entries are not always repeated.

Data set [1] addresses MCL-1 (Homo sapiens, UniProt Q07820). Description: Protein-protein interaction assay MCL-1/Noxa BH3 peptide (MCL-1 assay), TR-FRET. Particulars: MBP-MCL-1 / Noxa BH3-derived peptide, median. The class given is binding. The method, boiled down: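 Inhibition values were normalized between DMSO controls with all reagents and controls lacking MCL-1. The binding competition used 1 nM MBP-MCL-1 in pH 7 Tris buffer containing 50 mM KF and 100 mM NaCl, with a 10 min compound preincubation at 22 °C.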
(TR-FRET usually uses a lanthanide donor and a delayed reading to cut background.)

Data set [2] relates to SUDHL5. Description: Induction of caspase-3/7 activity (Caspase-Glo 3/7), SUDHL5. It counts as cell-based. To be noted: Homo sapiens, SU-DHL-5, 3 h, caspase-3/7 induction, SUDHL5 cells, 3 h treatment; median. The method, boiled down:
(§1)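 Apoptosis induction measured as caspase-3/7 activity (Caspase-Glo 3/7) in DLBCL lines after 3 h treatment at 37 °C; EC50 derived relative to the reference compound's maximal induction, with C0 fixed at 1.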

For data set [3], the system named is SUDHL10. Briefly: Induction of caspase-3/7 activity (Caspase-Glo 3/7), SUDHL10. Particulars: Homo sapiens, SU-DHL10, 3 h, caspase-3/7 induction, SUDHL10 cells, 3 h treatment; median. The class given is cell-based. The method, boiled down: as §1
Data set [4] concerns SUDHL5. Description: Anti-proliferative effect (CellTiter-Glo, 72 h), SUDHL5. The class given is cell-based. Particulars: Homo sapiens, SU-DHL-5, 72 h, SUDHL5 cells, antiproliferation, 72 h incubation, median, read-out: Antiproli SUDHL5 [M] (median). The method, boiled down: (§2)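 Luminescence from CellTiter-Glo, read 10 min after reagent addition, reports viable cell content after 72 h of compound treatment at 37 °C. A reference plate read at day 0 gives the starting baseline.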
A general note: Cellular ATP, detected with luciferase, serves as a proxy for viable cell number.

For data set [5], the system named is SUDHL10. Briefly: Anti-proliferative effect (CellTiter-Glo, 72 h), SUDHL10. It counts as cell-based. Particulars: Homo sapiens, SU-DHL10, 72 h, SUDHL10 cells, antiproliferation, 72 h incubation, median, read-out: Antiproli SUDHL10 [M] (median). The method, boiled down:
as §2

In data set [6] the test system is OPM2. Briefly: Anti-proliferative effect (CellTiter-Glo, 72 h), OPM2. It counts as cell-based. To be noted: Homo sapiens, OPM-2, 72 h, OPM2 cells, median, read-out: IC50 antiproliferation assay OPM2 [M] (median). A digest of the protocol: as §2
The subject of data set [7] is A2780. Description: Anti-proliferative effect (CellTiter-Glo, 72 h), A2780. It counts as cell-based. To be noted: Homo sapiens, A2780, 72 h, A2780 cells, median, read-out: IC50 antiproliferation assay A2780 [M] (median). A digest of the protocol:
as §2

In data set [8] the test system is SUDHL5. Description: Induction of cytotoxicity (CellTiter-Glo, 5 h), SUDHL5. Particulars: Homo sapiens, SU-DHL-5, 5 h, read-out: Cytotox SUDHL5 [M] (median), SUDHL5 cells, cytotoxicity induction, CellTiter-Glo, 5 h incubation, median.
For data set [9], the system named is SUDHL10. Description: Induction of cytotoxicity (CellTiter-Glo, 5 h), SUDHL10.
Setting [10] is: Homo sapiens, SU-DHL10, 5 h, read-out: Cytotox SUDHL10 [M] (median), SUDHL10 cells, cytotoxicity induction, CellTiter-Glo, 5 h incubation, median.

MCL-1, sequence (Q07820 whole entry): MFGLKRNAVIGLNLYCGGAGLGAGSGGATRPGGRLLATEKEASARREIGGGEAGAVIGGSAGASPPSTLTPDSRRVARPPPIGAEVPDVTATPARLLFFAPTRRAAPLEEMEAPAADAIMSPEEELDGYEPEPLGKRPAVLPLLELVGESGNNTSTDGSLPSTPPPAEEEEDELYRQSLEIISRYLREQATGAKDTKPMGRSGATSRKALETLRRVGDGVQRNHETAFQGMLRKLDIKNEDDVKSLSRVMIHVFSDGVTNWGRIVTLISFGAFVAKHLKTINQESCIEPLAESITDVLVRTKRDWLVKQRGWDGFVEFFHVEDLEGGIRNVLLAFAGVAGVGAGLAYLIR

In the case of `CN(C)S(=O)(=O)N1CCN(c2ccc(OCc3nn(C)c4c3-c3cccc5c(CCCOc6cccc7ccccc67)c(C(=O)O)n(c35)CC=CCOC4)cc2)CC1` (racemic) [Example 1-17, (rac)-(E/Z)-3-({4-([4-(dimethylsulfamoyl)piperazin-1-yl]phenoxy}methyl)-1-methyl-7-[3-(naphthalen-1-yloxy)propyl]-1,10,13,15-tetrahydropyrazolo[4′,3′:9,10][1,6]oxazacycloundecino[8,7,6-hi]indole-8-carboxylic Acid], the IC50 in data set [1] turned out to be 0.0127 µM; in data set [4], 2.99e-06 M; in data set [5], 4.25e-06 M; in data set [6] it was 4.37e-06 M; in data set [7], 8.94e-06 M; in [8], 4.36e-06 M. In addition, in data set [9] (setting [10]), the IC50 is 6.88e-06 M. The values for the 50% effective concentration (EC50) in data set [2] and in data set [3] were 3.73 µM and 4.39 µM, respectively.
Take `Cn1nc(COc2ccc(N3CCN(C(=O)C4CC4)CC3)cc2)c2c1COCCCCn1c(C(=O)O)c(CCCOc3cccc4ccccc34)c3cccc-2c31` (racemic) [Example 1-21, (rac)-3-({4-[4-(cyclopropylcarbonyl)piperazin-1-yl]phenoxy}methyl)-1-methyl-7-[3-(naphthalen-1-yloxy)propyl]-10,11,12,13,15-hexahydropyrazolo[4′,3′:9,10][1,6]oxazacycloundecino[8,7,6-hi]indole-8-carboxylic Acid]: the IC50 in [1] amounted to 0.00106 µM; in data set [4] it was 2.41e-06 M; in [5], 2.49e-06 M; in data set [6], 3.61e-06 M; in data set [7], 1.29e-05 M; in data set [8], 2.31e-06 M. Further, the IC50 in data set [9] (setting [10]) came out at 3.26e-06 M. Also, the values for the EC50 in data set [2] and in data set [3] were 2.34 µM and 2.82 µM, respectively.
With `CC(=O)N1CCN(c2ccc(OCc3nn(C)c4c3-c3cccc5c(CCCOc6cccc7ccccc67)c(C(=O)O)n(c35)CCCCOC4)cc2)CC1` (racemic) [Example 1-24, (rac)-3-{[4-(4-acetylpiperazin-1-yl)phenoxy]methyl}-1-methyl-7-[3-(naphthalen-1-yloxy)propyl]-1,10,11,12,13,15-hexahydropyrazolo[4′,3′:9,10][1,6]oxazacycloundecino[8,7,6-hi]indole-8-carboxylic Acid], the IC50 in [1] was 0.00231 µM; in data set [4] it was 4.7e-06 M; in data set [5] it was 6.52e-06 M; in [6] it was 2.97e-05 M; in data set [7], greater than 3.3e-05 M; in [8], 2.23e-06 M. For the same compound, the IC50 in data set [9] (setting [10]) was determined as 4.33e-06 M. Moreover, the 50% effective concentration (EC50) is 4.28 µM in [2] and 6.61 µM in data set [3].
Regarding `COCC(=O)N1CCN(c2ccc(OCc3nn(C)c4c3-c3cccc5c(CCCOc6cccc7ccccc67)c(C(=O)O)n(c35)CCCCOC4)cc2)CC1` (racemic) [Example 1-27, (rac)-3-({4-[4-(methoxyacetyl)piperazin-1-yl]phenoxy}methyl)-1-methyl-7-[3-(naphthalen-1-yloxy)propyl]-1,10,11,12,13,15-hexahydropyrazolo[4′,3′:9,10][1,6]oxazacycloundecino[8,7,6-hi]indole-8-carboxylic Acid], the IC50 in data set [1] is 0.00208 µM; in data set [4], 2.95e-06 M; in data set [5], 6.3e-06 M; in data set [6] it was 8.75e-06 M; in [7] it was 2.23e-05 M; in data set [8], 3.53e-06 M. Moreover, the IC50 in data set [9] (setting [10]) worked out at 8.44e-06 M. The values for the 50% effective concentration (EC50) in data set [2] and in [3] were 4.42 µM and 7.5 µM, respectively.
With `Cc1nn(C)c2c1-c1cccc3c(CCCOc4cccc5ccccc45)c(C(=O)O)n(c13)CCCCOC2` (racemic) [Example 1-33, (rac)-1,3-dimethyl-7-[3-(naphthalen-1-yloxy)propyl]-1,10,11,12,13,15-hexahydropyrazolo[4′,3′:9,10][1,6]oxazacycloundecino[8,7,6-hi]indole-8-carboxylic Acid], the IC50 is 0.009 µM in [1]; 9.78e-06 M in [4]; 1.83e-05 M in data set [5]; 2.23e-05 M in [6]; greater than 3.3e-05 M in data set [7]; 7.47e-06 M in [8]. Moreover, in [9] (setting [10]), the IC50 is 2.19e-05 M. Further, the figures for the EC50 in [2] and in data set [3] were 5.78 µM and 13.7 µM, respectively.
`CN(C)S(=O)(=O)N1CCN(c2ccc(OCc3nn(C)c4c3-c3cccc5c(CCCOc6cccc7ccccc67)c(C(=O)O)n(c35)CCCCCC4)cc2)CC1` (racemic) [Example 1-39, (rac)-3-({4-[4-(dimethysulfamoyl)piperazin-1-yl]phenoxy}methyl)-1-methyl-7-[3-(naphthalen-1-yloxy)propyl]-10,11,12,13,14,15-hexahydro-1H-pyrazolo[4′,3′:4,5]azacycloundecino[3,2,1-hi]indole-8-carboxylic Acid]: the IC50 in data set [1] is 0.00251 µM; in data set [4], 5.77e-06 M; in [5], 2.14e-05 M; in [6], greater than 3.3e-05 M; in [7], greater than 3.3e-05 M; in data set [8], 2.05e-06 M. Also, the IC50 in data set [9] (setting [10]) came out at 1.82e-06 M. Moreover, the figures for the 50% effective concentration (EC50) in data set [2] and in [3] were 3.47 µM and 2.45 µM, respectively.
Regarding `CN1CCCn2c(C(=O)O)c(CCCOc3cccc4ccccc34)c3cccc(c32)-c2c(CN3CCOCC3)nn(C)c2C1` (racemic) [Example 1-42, (rac)-7,9-dimethyl-11-(morpholin-4-ylmethyl)-1-[3-(naphthalen-1-yloxy)propyl]-4,5,6,7,8,9-hexahydropyrazolo[3′,4′:7,8][1,5]diazecino[9,10,1-hi]indole-2-carboxylic Acid], the IC50 in data set [1] is 0.0202 µM; in [4], 7.08e-06 M; in data set [5] it was 1.64e-05 M; in data set [6], 3.29e-05 M; in [7], greater than 3.3e-05 M; in [8], 1.19e-05 M. For the same compound, the IC50 in [9] (setting [10]) is greater than 3.3e-05 M. Moreover, the 50% effective concentration (EC50) in [2] came to 10.9 µM; in data set [3], 14.9 µM.
As to `Cn1nc(COc2ccc(C3(O)CCOCC3)cc2)c2c1COCC=CCn1c(C(=O)O)c(CCCOc3cccc4ccccc34)c3cccc-2c31` (racemic) [Example 1-60, (rac)-(E/Z)-3-{[4-(4-hydroxytetrahydro-2H-pyran-4-yl)phenoxy]methyl}-1-methyl-7-[3-(naphthalen-1-yloxy)propyl]-1,10,13,15-tetrahydropyrazolo[4′,3′ 9,10][1,6]oxazacycloundecino[8,7,6-hi]indole-8-carboxylic Acid], the IC50 in data set [1] was 0.0171 µM; in data set [4], 1.3e-05 M; in [5], 9.02e-06 M; in data set [6], greater than 3.3e-05 M; in [7], 2.88e-05 M; in data set [8] it was 2.1e-05 M. Moreover, the IC50 in [9] (setting [10]) was determined as 3.27e-05 M. Further, the figures for the concentration giving a half-maximal response (EC50) in data set [2] and in data set [3] were 19.5 µM and 25.9 µM, respectively.
As to `COC1(c2ccc(OCc3nn(C)c4c3-c3cccc5c(CCCOc6cccc7ccccc67)c(C(=O)O)n(c35)CC=CCOC4)cc2)CCOCC1` (racemic) [Example 1-64, (rac)-(E/Z)-3-{[4-(4-methoxytetrahydro-2H-pyran-4-yl)phenoxy]methyl}-1-methyl-7-[3-(naphthalen-1-yloxy)propyl]-1,10,13,15-tetrahydropyrazolo[4′,3′:9,10][1,6]oxazacycloundecino[8,7,6-hi]indole-8-carboxylic Acid], the IC50 in [1] came to 0.0988 µM; in data set [4], 1.2e-05 M; in data set [5], 7.4e-06 M; in data set [6], 2.15e-05 M; in data set [7] it was 1.21e-05 M; in [8], 2.65e-05 M. The IC50 in data set [9] (setting [10]) was greater than 3.3e-05 M; in [9] (read-out: Cytotox SUDHL10 [M] (median), SUDHL10 cells, cytotoxicity induction, CellTiter-Glo, 5 h incubation, median), 3.12e-05 M and 2.47e-05 M. The EC50 was found to be 19.9 µM in data set [2] and 29.4 µM in [3].
Take `CC(C)OCc1nn(C)c2c1-c1cccc3c(CCCOc4cccc5c4CCCC5)c(C(=O)O)n(c13)CCCCOC2` (racemic) [Example 1-69, (rac)-1-methyl-3-[(propan-2-yloxy)methyl]-7-[3-(5,6,7,8-tetrahydronaphthalen-1-yloxy)propyl]-1,10,11,12,13,15-hexahydropyrazolo[4′,3′:9,10][1,6]oxazacycloundecino[8,7,6-hi]indole-8-carboxylic Acid]: the IC50 was 0.0118 µM in data set [1]; greater than 3.3e-05 M in data set [4]; greater than 3.3e-05 M in data set [5]; greater than 3.3e-05 M in data set [6]; greater than 3.3e-05 M in data set [7]; 2.71e-05 M in [8]. For the same compound, in data set [9] (setting [10]), the IC50 was greater than 3.3e-05 M. For the same compound, the EC50 in data set [2] and in data set [3] was greater than 33 µM in each case.

In general, EC50 refers to the concentration giving half of the maximal effect. Higher therefore signals a less potent agent.

The record behind these values is patent US10981932B2, “Macrocyclic indole derivatives” (Bayer Aktiengesellschaft, priority 2016, dated 2021).
